Like-named read-outs stand apart in the source and are kept apart here.
Columns and labels:
[1] = tested on: Human T cell lymphoma (MOLT-4) cells; assay: In vitro drug pretreatment of encapsulated cells, then growth in the peritoneal cavity of mice; format: in vivo
Procedure: The encapsulated tumors are preferably incubated at 37° C in medium for 1 to 2 hours. A 25 percent (v/v) suspension can then be prepared (preferably without bovine serum). The suspension can be inoculated in the peritoneal cavity of the host animal (i.e., with a 16 gauge needle).
(§1) In the experiments that follow, the drugs and other agents tested were administered to the host animal by injection at the various times called for in the protocol being tested. At various periods after treatment, the mice were killed by cervical dislocation. The peritoneal cavity of each mouse was washed with PBS or medium and floating microcapsules were aspirated using a large bore plastic Pasteur pipette. Microcapsules were transferred to 15 ml tubes and washed 3 to 4 times with PBS to remove host peritoneal cells. The washed microcapsules were aspirated into 1 ml serological pipettes, allowed to sediment, and the volume of packed microcapsules was determined. Microcapsules were then transferred to a glas dounce homogenizer (7 ml volume) and disrupted with 3 strokes of an A-tolerance plumger. Cells suspensions were filtered through nylon mesh to remove the disrupted membranes. The suspensions containing tumor cells were centrifuged and the pellet was resuspended in 0.25 to 0.5 ml of complete medium. After mixing equal volumes of cell suspension and trypan blue, viable cell counts were determined using a hemocytometer.
(§2) The number of tumor cells per 1 ml of packed microcapsules was determined as follows: a = ? where b = total number of tumor cells in the suspension, and c = total volume of microcapsules used for the preparation of this suspension.
(§3) By comparing the number of tumor cells in 1 ml of microcapsules derived from non-treated and drug-treated mice, the percent inhibition of tumor cell growth was calculated: [formula] where ac = number of tumor cells from the non-treated control microcapsules, and ae = number of tumor cells from the drug treated microcapsules.
Human T cell lymphoma (MOLT-4) cells were encapsulated according to the procedures described above and incubated in vitro in RPMI I640 medium supplemented with 10 percent fetal calf serum, glutamine and antibiotics for one hour of 37°C. During incubation they were exposed to various concentrations of 1,3-B (2-chloroethyl)-1-nitrosourea (BCNU), 5-fluorouracil (5-FU) and adriamycin. The microcapsules were then washed and implanted into the peritoneal cavity (i.p.) of C57BL/6 mice (Animal Production Area NCI-Frederick Cancer Research Facility) using #18-14 needles. After seven days the mice were sacrificed and their peritoneal cavities were washed with PBS and aspirated to collect the microcapsules in a Pasteur pipette. The microcapsules were washed several times from the host peritoneal cells. The microcapsules from the individual mice were counted by transferring them into wells of a 96 well microplate. Using an inverted microscope, the numbers of microcapsules in each well were counted. Each well was washed out and microcapsules were transferred into the glass homogenizer.
Microcapsules were then disrupted, and the suspension was filtered, centrifugated and reconstituted with PBS. The concentration and total number of cells were counted using a hemocytometer.

[2] = tested on: MOLT-4 human lymphoma cells; assay: In vivo sensitivity of encapsulated MOLT-4 cells in nude mice, NCI schedule; details: Adriamycin 6 mg/kg, 15 days after transplantation
Procedure: as §1, §2, §3
In the next experiment various drugs were administered in vivo according to schedules and doses typically used for screening antitumor effects of the drugs at the National Cancer Institute, Developmental Therapeutics program.
MOLT-4 human lymphoma cells were encapsulated and transplanted into peritoneum of nude mice. Doses of various drugs were applied i.v. at 1, 5 and 9 days after tumor cell transplantation.

[3] = tested on: human colon adenocarcinoma (HT-29) cells; assay: In vivo growth of encapsulated HT-29 cells in C57BL/6 mice
Procedure: as §1, §2, §3
A second human cancer cell line was also used to further analyze in vivo effects of different drugs on the growth of tumors. Encapsulated human colon adenocarcinoma (HT-29) cells were again transplanted into C57BL/6 mice and various drugs were administered after 3 days either by intravenous or by intraperitoneal injection. Animals were sacrificed after 4 days and number of cells per capsule were counted to calculate inhibition rates for the various treatment procedures. […] In fact, 5-FU is a preferred chemotherapeutic agent for patients with gastrointestinal malignancies.

human Melanoma LOX cells = assay: In vivo susceptibility of encapsulated LOX melanoma cells in nude mice; details: for sensitivity of encapsulated LOX cells to the treatment (in words): i.v. days 1, 5, 9; for No. of viable tumor cells per 1 ml. of capsules: i.v. days 1, 5, 9, Adriamycin 6, BCNU 20, CY 100, 5-Fu 60 mg/kg
Procedure: as §1, §2, §3
In this series of experiments, cells of a fourth human cancer type, Melanoma LOX cells, were used. LOX cells have recently been proposed as the model for experimental treatment at the NCI Development Therapeutics Program. Following i.p. inoculation of the suspension of LOX Melanoma cells into nude mice, various drugs were administered i.v. and survival of the treated mice was determined (Schoemaker et al., Proceeding American Association for Cancer Research, 26, 1302, 1985) (mice transplanted with the non-encapsulated tumor cells were considered tumor-free if they survived during 3 months of observation). In parallel experiments encapsulated LOX Melanoma cells were transferred into nude mice and drugs were inoculated i.v. 1, 5 and 9 days at the dose and schedule utilized by the Dr. Shoemaker's procedure.

LOX Melanoma cells = details: i.v.; Adriamycin 6, BCNU 20, CY 100, 5-Fu 60 mg/kg; survival during 3 months of observation; nude mice; cited from earlier work
MOLT-4 lymphoma cells = assay: In vivo inhibition of encapsulated Molt-4 lymphoma growth in C57BL/6 mice; set-up: species or system human
Procedure: as §1, §2, §3
MOLT-4 lymphoma cells were also used in an in vivo assay. As before, the MOLT-4 cells were encapsulated and transplanted i.p. into C57BL/6 mice. On day 1 following the transplantation of the encapsulated cells, the mice were treated i.v. intravenous (i.v.) with BCNU, adriamycin or cyclophosphamide (CY). This approach allowed the testing of cyclophosphamide (CY) which is inefficient in vitro because it must be metabolized to obtain an active cytotoxic derivative. Ten days after transplantation, the encapsulated cells were retrieved and the tumor cells contained therein were counted. […]

[4] = tested on: human lung carcinoma A549 cells; assay: In vivo susceptibility of encapsulated A549 cells; details: i.v. days 2, 5, 9; for No. of tumor cells per 1 ml of capsules / percent Inhibition: Adriamycin 6, BCNU 20, CY 100 mg/kg
Procedure: as §1, §2, §3
The sensitivity of human lung carcinoma A549 cells to the drugs was assessed 12 and 14 days after transplantation of encapsulated tumor cells. The treatments were applied i.v. 2, 5 and 9 days after microcapsule transplantation (Table 5).

Original P388 cells = assay: In vivo growth of encapsulated original P388 lymphoma cells in nude mice; details: for inhibition at 100 mg/kg: Mus musculus, P388, iv
Procedure: as §1, §2, §3
(§4) Since drug-resistance is one of the most important causes of failure in chemotherapy, it is crucial that a predictive assay be able to distinguish between effective and non-effective drugs for particular tumors. […] One day later the mice received by i.v. administration Adriamycin (6 mg/kg), Vinblastin (1 mg/kg) or Cyclophosphamide (100 mg/kg). Five days after administration some of the mice were sacrificed, the microcapsules were recovered and the numbers of tumor cells inside the capsules were determined. The remaining mice received a second administration and the microcapsules were recovered from the remaining mice 3 days afterwards. The results are shown in Table 7 and correlate well with the known characteristics of P388 cell line and its variant.

P388 Resistant Cells = assay: In vivo growth of encapsulated adriamycin-resistant P388 lymphoma cells in nude mice; details: for inhibition at 100 mg/kg: Mus musculus, P388, iv
Procedure: as §1, §2, §3, §4

[5] = 25 µg/ml in vitro for one hour, then 7 days i.p. in C57BL/6 mice
[6] = 100 µg/ml in vitro for one hour, then 7 days i.p. in C57BL/6 mice
[7] = Mus musculus, MOLT-4, iv, 360 h, i.v. days 1, 5, 9, Cyclophosphamide 100 mg/kg, 5-Fu 60 mg/kg, nude mice
[8] = i.v. days 1, 5, 9, Cyclophosphamide 100 mg/kg, 5-Fu 60 mg/kg, nude mice
[9] = Mus musculus, HT-29, ip, i.p. 3 days after transplantation, 5-Fu 150 mg/kg, CY 250 mg/kg, Adriamycin 20 mg/kg, 4 days
[10] = i.p. 3 days after transplantation, 5-Fu 150 mg/kg, CY 250 mg/kg, Adriamycin 20 mg/kg, 4 days
[11] = Mus musculus, MOLT-4, iv, i.v. on day 1, Adriamycin 10 mg/kg, BCNU 100 mg/kg, CY 200 mg/kg, capsules retrieved ten days after transplantation
[12] = i.v. on day 1, Adriamycin 10 mg/kg, BCNU 100 mg/kg, CY 200 mg/kg, capsules retrieved ten days after transplantation
[13] = 5 + 3 days after treatment (3 days after second administration), Adriamycin 6, Vinblastin 1, Cyclophosphamide 100 mg/kg i.v.
[14] = 5 days after treatment, i.v. one day after inoculation, Adriamycin 6, Vinblastin 1, Cyclophosphamide 100 mg/kg
[15] = 72 h, 5 + 3 days after treatment (3 days after second administration), Adriamycin 6, Vinblastin 1, Cyclophosphamide 100 mg/kg i.v.

Compound | No. of tumor cells per capsule [1, 5] | No. of tumor cells per capsule [1, 6] | No of viable tumor cells per 1 ml of capsules [2, 8] | No. of cells per capsule [3, 10] | Total No. of tumor cells [3, 10] | sensitivity of encapsulated LOX cells to the treatment (in words) (human Melanoma LOX cells) | No. of viable tumor cells per 1 ml. of capsules (human Melanoma LOX cells) | % survived mice transplanted with nonencapsulated tumor cells (LOX Melanoma cells) [%] | No. of cells per capsule (MOLT-4 lymphoma cells; [12]) | Total No. of tumor cells (MOLT-4 lymphoma cells; [12]) | No. of tumor cells per 1 ml of capsules ([4]; 12 days after transplantation) | percent Inhibition ([4]; 12 days after transplantation) [%] | No. of tumor cells per 1 ml of capsules ([4]; 14 days after transplantation) | percent Inhibition ([4]; 14 days after transplantation) [%] | No. cells/ml (Original P388 cells; [13]) | No. cells/ml (Original P388 cells; [14]) | No. cells/ml (P388 Resistant Cells; [13]) | No. cells/ml (P388 Resistant Cells; [14]) | further results
O=c1[nH]cc(F)c(=O)[nH]1 [5-Fu, 5-fluorouracil] | 3 x 10^3 | 10^2 | 41.0 x 10^6 | 0.6 x 10^4 | 0.6 x 10^6 | least efficient | 29 x 10^5 | 0 |  |  |  |  |  |  |  |  |  |  | inhibition at 25 µg/mL ([1]; Mus musculus, MOLT-4, ip, 25 µg/ml in vitro for one hour, then 7 days i.p. in C57BL/6 mice, read-out: % Inhibition): 40%; inhibition at 100 µg/mL ([1]; Mus musculus, MOLT-4, ip, 100 µg/ml in vitro for one hour, then 7 days i.p. in C57BL/6 mice, read-out: % Inhibition): 98%; inhibition of tumor cell proliferation (in words) ([2]; 5-FU 60 mg/kg i.v. days 1, 5, 9): significantly less efficient; inhibition at 60 mg/kg [2, 7]: 30%; inhibition at 150 mg/kg [3, 9]: 70%; sensitivity of encapsulated HT-29 cells (in words) ([3]; in vivo): more sensitive to 5-FU than to the other drugs tested
O=NN(CCCl)C(=O)NCCCl [BCNU, 1,3-B (2-chloroethyl)-1-nitrosourea] | 1 x 10^4 | 0.1 x 10^4 |  |  |  | most sensitive | 2 x 10^5 | 50 | 1222 | 27 x 10^4 | 7.0 x 10^5 | 88 | 15.7 x 10^5 | 81 |  |  |  |  | No. of tumor cells per capsule ([1]; 6 µg/ml in vitro for one hour, then 7 days i.p. in C57BL/6 mice): 1 x 10^4; inhibition at 6 µg/mL ([1]; Mus musculus, MOLT-4, ip): 86%; inhibition at 25 µg/mL ([1]; Mus musculus, MOLT-4, ip): 86%; inhibition at 100 µg/mL ([1]; Mus musculus, MOLT-4, ip): 98%; inhibition at 100 mg/kg (MOLT-4 lymphoma cells; [11]): 55%; reduction of the numbers of tumor cells (in words) [4]: more efficient in this respect than CY
O=P1(N(CCCl)CCCl)NCCCO1 (centres unmarked) [CY, cyclophosphamide] |  |  | 1.9 x 10^6 | 1.6 x 10^4 | 1.1 x 10^6 | most sensitive | 0.7 x 10^5 | 40 | 171 | 10 x 10^4 | 13.5 x 10^5 | 78 | 39.0 x 10^5 | 53 | 1.3 x 10^6 | 0.4 x 10^6 | 1.1 x 10^6 | 0.4 x 10^6 | inhibition at 200 mg/kg (MOLT-4 lymphoma cells; [11]): 93.7%; reduction of the number of viable tumor cells in the capsules (in words) (MOLT-4 lymphoma cells; i.v. on day 1, ten days after transplantation): more effective than BCNU; inhibition at 100 mg/kg [2, 7]: 97%; inhibition at 250 mg/kg [3, 9]: 20%; inhibition at 100 mg/kg (Original P388 cells; [15]): 97%; inhibition at 100 mg/kg (Original P388 cells; [14]): 98%; inhibition at 100 mg/kg (P388 Resistant Cells; [15]): 96%; inhibition at 100 mg/kg (P388 Resistant Cells; Cyclophosphamide 100 mg/kg i.v., both time points): 96 to 98%; inhibition at 100 mg/kg (P388 Resistant Cells; [14]): 98%
CCC1(O)CC2CN(CCc3c([nH]c4ccccc34)C(C(=O)OC)(c3cc4c(cc3OC)N(C)C3C(O)(C(=O)OC)C(OC(C)=O)C5(CC)C=CCN6CCC43C65)C2)C1 (centres unmarked) [Vinblastin] |  |  |  |  |  |  |  |  |  |  |  |  |  |  | 6 x 10^6 | 9 x 10^6 | 23 x 10^6 | 15 x 10^6 | % Inhibition (Original P388 cells; [13]): 89%; % Inhibition (Original P388 cells; [14]): 60%; % Inhibition (P388 Resistant Cells; [13]): 21%; % Inhibition (P388 Resistant Cells; [14]): 12%; inhibiting the growth of the drug-resistant variant (in words) (P388 Resistant Cells; Adriamycin 6 mg/kg, Vinblastin 1 mg/kg i.v.): Neither Adriamycin nor Vinblastin in the doses administered was effective
